Experimental findings from article PMC6934184, “Selective DNA-PKcs inhibition extends the therapeutic index of localized radiotherapy and chemotherapy” (The Journal of Clinical Investigation, 2019) are described below.

The structures appear in SMILES notation.

In this experiment the target is T1, AMPK A1/B1/G1 (Homo sapiens, UniProt Q13131).
T1 construct: purchased Thermo Fisher Scientific (Life Technologies) SelectScreen
In words: SelectScreen Z'LYTE. Format: biochemical. In outline:
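SelectScreen broad panel; activity (Z'LYTE, Adapta) plus binding formats. ATP: Km app for CSF1R Z'LYTE; 10 for CAMK1 Adapta. Readout = % per kinase.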

T1 sequence (Q13131 whole entry): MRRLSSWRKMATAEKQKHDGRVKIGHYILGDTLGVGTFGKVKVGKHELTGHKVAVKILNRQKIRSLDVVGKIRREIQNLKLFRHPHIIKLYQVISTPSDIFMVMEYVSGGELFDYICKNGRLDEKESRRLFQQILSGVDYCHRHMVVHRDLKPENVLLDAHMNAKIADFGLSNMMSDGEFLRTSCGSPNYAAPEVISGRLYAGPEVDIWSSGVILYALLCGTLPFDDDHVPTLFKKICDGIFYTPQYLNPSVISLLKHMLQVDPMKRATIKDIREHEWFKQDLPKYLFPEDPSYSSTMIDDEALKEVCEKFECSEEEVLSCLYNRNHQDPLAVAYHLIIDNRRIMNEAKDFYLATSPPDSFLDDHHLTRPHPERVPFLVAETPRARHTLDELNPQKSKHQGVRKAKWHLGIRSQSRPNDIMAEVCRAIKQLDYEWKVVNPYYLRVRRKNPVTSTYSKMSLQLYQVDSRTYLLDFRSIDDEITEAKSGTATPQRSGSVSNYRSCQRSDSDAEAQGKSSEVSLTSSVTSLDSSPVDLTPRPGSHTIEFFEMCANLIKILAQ
T1 sequence (Q9Y478 whole entry partner): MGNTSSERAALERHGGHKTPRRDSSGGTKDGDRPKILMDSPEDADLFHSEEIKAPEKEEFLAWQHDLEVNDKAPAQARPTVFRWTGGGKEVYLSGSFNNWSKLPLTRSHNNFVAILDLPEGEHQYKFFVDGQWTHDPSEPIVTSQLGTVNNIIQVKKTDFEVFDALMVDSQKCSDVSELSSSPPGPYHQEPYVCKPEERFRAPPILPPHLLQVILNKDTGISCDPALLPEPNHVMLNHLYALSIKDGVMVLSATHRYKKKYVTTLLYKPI
T1 sequence (P54619 whole entry partner): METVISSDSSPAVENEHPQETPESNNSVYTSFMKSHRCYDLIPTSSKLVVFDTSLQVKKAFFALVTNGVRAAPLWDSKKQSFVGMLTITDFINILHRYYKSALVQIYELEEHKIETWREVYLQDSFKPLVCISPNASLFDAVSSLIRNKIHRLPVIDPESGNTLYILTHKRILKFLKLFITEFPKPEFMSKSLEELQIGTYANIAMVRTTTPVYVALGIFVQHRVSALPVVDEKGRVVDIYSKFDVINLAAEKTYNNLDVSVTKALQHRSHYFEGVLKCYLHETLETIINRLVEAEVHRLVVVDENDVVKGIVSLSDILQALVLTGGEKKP

As for `CN(C(=O)CN1CCOCC1)c1ccc2sc3c(-c4cccc5c(=O)cc(N6CC7CCC(C6)O7)oc45)cccc3c2c1` [NU5455], the inhibition (usually the drop in the measured response relative to a control, in per cent) at 1 µM was -1.2%.
